Patent US12398107B2, “Fungicidal nitroanilino substituted pyrazoles” (FMC Corporation, priority 2018, dated 2025)

How the values were obtained:
Assay type in all cases: in vivo
[1] = tested on: Blumeria graminis f. sp. tritici; experiment: Test C: wheat powdery mildew, preventive spray on wheat seedlings; conditions: 50 ppm, rated after 8 days, 100 = 100% disease control, 0 = no control; for pest or weed control at 50 ppm: Blumeria graminis, 192 h, read-out: Test C disease control rating (wheat powdery mildew)
Text: General protocol for preparing test suspensions for Tests A-F: the test compounds were first dissolved in acetone in an amount equal to 3% of the final volume and then suspended at the desired concentration (in ppm) in acetone and purified water (50/50 mix by volume) containing 250 ppm of the surfactant PEG400 (polyhydric alcohol esters). The resulting test suspensions were then used in Tests A-F. The test suspension was sprayed to the point of run-off on wheat seedlings. The following day the seedlings were inoculated with a spore dust of Blumeria graminis f. sp. tritici, (also known as Erysiphe graminis f. sp. tritici, the causal agent of wheat powdery mildew) and incubated in a growth chamber at 20° C. for 8 days, after which time visual disease ratings were made. A rating of 100 indicates 100% disease control and a rating of 0 indicates no disease control (relative to the controls). A dash (-) indicates the compound was not tested.

[2] = tested on: Puccinia recondita f. sp. tritici; experiment: Test B: wheat leaf rust, preventive spray on wheat seedlings; conditions: 50 ppm, 100 = 100% disease control, 0 = no control relative to controls; for pest or weed control at 50 ppm: read-out: Test B disease control rating (wheat leaf rust)
Text: General protocol for preparing test suspensions for Tests A-F: the test compounds were first dissolved in acetone in an amount equal to 3% of the final volume and then suspended at the desired concentration (in ppm) in acetone and purified water (50/50 mix by volume) containing 250 ppm of the surfactant PEG400 (polyhydric alcohol esters). The resulting test suspensions were then used in Tests A-F. The test solution was sprayed to the point of run-off on wheat seedlings. The following day the seedlings were inoculated with a spore suspension of Puccinia recondita f. sp. tritici (the causal agent of wheat leaf rust) and incubated in a saturated atmosphere at 20° C. for 24 h, and then moved to a growth chamber at 20° C. for 7 days, after which time disease ratings were made. A rating of 100 indicates 100% disease control and a rating of 0 indicates no disease control (relative to the controls). A dash (-) indicates the compound was not tested.

Phakopsora pachyrhizi = experiment: Test D: Asian soybean rust, preventive spray on soybean seedlings; conditions: 50 ppm, 100 = 100% disease control, 0 = no control; for pest or weed control at 50 ppm: Phakopsora pachyrhizi, read-out: Test D disease control rating (Asian soybean rust)
Text: General protocol for preparing test suspensions for Tests A-F: the test compounds were first dissolved in acetone in an amount equal to 3% of the final volume and then suspended at the desired concentration (in ppm) in acetone and purified water (50/50 mix by volume) containing 250 ppm of the surfactant PEG400 (polyhydric alcohol esters). The resulting test suspensions were then used in Tests A-F.
The test solution was sprayed to the point of run-off on soybean seedlings. The following day the seedlings were inoculated with a spore suspension of Phakopsora pachyrhizi (the causal agent of Asian soybean rust) and incubated in a saturated atmosphere at 22° C. for 24 h and then moved to a growth chamber at 22° C. for 8 days, after which time visual disease ratings were made.
A rating of 100 indicates 100% disease control and a rating of 0 indicates no disease control (relative to the controls). A dash (-) indicates the compound was not tested.

Alternaria solani = experiment: Test F: tomato early blight, preventive spray on tomato seedlings; conditions: 50 ppm, 100 = 100% disease control, 0 = no control; for pest or weed control at 50 ppm: Alternaria solani, read-out: Test F disease control rating (tomato early blight)
Text: (§1) General protocol for preparing test suspensions for Tests A-F: the test compounds were first dissolved in acetone in an amount equal to 3% of the final volume and then suspended at the desired concentration (in ppm) in acetone and purified water (50/50 mix by volume) containing 250 ppm of the surfactant PEG400 (polyhydric alcohol esters). The resulting test suspensions were then used in Tests A-F. The test suspension was sprayed to the point of run-off on tomato seedlings. The following day the seedlings were inoculated with a spore suspension of Alternaria solani (the causal agent of tomato early blight) and incubated in a saturated atmosphere at 27° C. for 48 h, and then moved to a growth chamber at 20° C. for 3 days, after which time visual disease ratings were made. A rating of 100 indicates 100% disease control and a rating of 0 indicates no disease control (relative to the controls). A dash (-) indicates the compound was not tested.

Septoria tritici = experiment: Test A: wheat leaf blotch, preventive spray on wheat seedlings; conditions: 50 ppm, 100 = 100% disease control, 0 = no control relative to controls; for pest or weed control at 50 ppm: Zymoseptoria tritici, read-out: Test A disease control rating (wheat leaf blotch)
Text: General protocol for preparing test suspensions for Tests A-F: the test compounds were first dissolved in acetone in an amount equal to 3% of the final volume and then suspended at the desired concentration (in ppm) in acetone and purified water (50/50 mix by volume) containing 250 ppm of the surfactant PEG400 (polyhydric alcohol esters). The resulting test suspensions were then used in Tests A-F. The test solution was sprayed to the point of run-off on wheat seedlings. The following day the seedlings were inoculated with a spore suspension of Septoria tritici (the causal agent of wheat leaf blotch) and incubated in a saturated atmosphere at 24° C. for 48 h, and then moved to a growth chamber at 20° C. for 17 days, after which time disease ratings were made. A rating of 100 indicates 100% disease control and a rating of 0 indicates no disease control (relative to the controls). A dash (-) indicates the compound was not tested.

Botrytis cinerea = experiment: Test E: tomato Botrytis, preventive spray on tomato seedlings; conditions: 50 ppm, 100 = 100% disease control, 0 = no control; for pest or weed control at 50 ppm: Botrytis cinerea, read-out: Test E disease control rating (tomato Botrytis)
Text: as §1, with “Botrytis cinerea” for “Alternaria solani”, “Botrytis)” for “early blight)”, “20°” for “27°”, “24°” for “20°”

Row | Compound | Test C disease control rating (wheat powdery mildew) [1] [%] | Test B disease control rating (wheat leaf rust) [2] [%] | Test D disease control rating (Asian soybean rust) (Phakopsora pachyrhizi) [%] | Test F disease control rating (tomato early blight) (Alternaria solani) [%] | Test A disease control rating (wheat leaf blotch) (Septoria tritici) [%] | Test E disease control rating (tomato Botrytis) (Botrytis cinerea) [%] | pest or weed control at 50 ppm [1] [%] | pest or weed control at 50 ppm [2] [%] | pest or weed control at 50 ppm (Phakopsora pachyrhizi) [%] | pest or weed control at 50 ppm (Alternaria solani) [%] | pest or weed control at 50 ppm (Septoria tritici) [%] | pest or weed control at 50 ppm (Botrytis cinerea) [%]
1 | Cc1nn(C)c(Nc2c(F)cc(F)cc2[N+](=O)[O-])c1-c1ccc(Cl)cc1F [Compound 13] | 97 | 99 | 19 | 89 | 100 | 68 | – | – | – | – | – | –
2 | Cc1ccc(Nc2c(-c3ccc(C#N)cc3Cl)c(C)nn2C)c([N+](=O)[O-])c1 [Compound 14] | 83 | 97 | 48 | 83 | 100 | 96 | – | – | – | – | – | –
3 | Cc1cc(Cl)c(Nc2c(-c3ccc(F)cc3F)c(C)nn2C)c([N+](=O)[O-])c1 [Compound 15] | 98 | 100 | 61 | 53 | 100 | 99 | – | – | – | – | – | –
4 | CCc1nn(C)c(Nc2c(Cl)cc(C)cc2[N+](=O)[O-])c1-c1ccc(F)cc1F [Compound 16] | 98 | 99 | 50 | 0 | 100 | 99 | – | – | – | – | – | –
5 | CCc1nn(C)c(Nc2c(Cl)cccc2[N+](=O)[O-])c1-c1ccc(F)cc1F [Compound 17] | 94 | 92 | 0 | 9 | 100 | 99 | – | – | – | – | – | –
6 | Cc1nn(C)c(Nc2c(Cl)cc(F)cc2[N+](=O)[O-])c1-c1ccc(C#N)cc1Cl [Compound 18, 3-chloro-4-[5-[(2-chloro-4-fluoro-6-nitrophenyl)amino]-1,3-dimethyl-1H-pyrazol-4-yl]benzonitrile] | – | – | – | – | – | – | 89 | 100 | 92 | 99 | 100 | 100
7 | Cc1nn(C)c(Nc2c(Cl)cc(F)cc2[N+](=O)[O-])c1-c1ccc(F)cc1Cl [Compound 19, N-(2-chloro-4-fluoro-6-nitrophenyl)-4-(2-chloro-4-fluorophenyl)-1,3-dimethyl-1H-pyrazol-5-amine] | – | – | – | – | – | – | 100 | 100 | 98 | 99 | 100 | 100
8 | Cc1nn(C)c(Nc2ccc(F)cc2[N+](=O)[O-])c1-c1ccc(F)cc1Br [Compound 20] | 92 | 89 | 0 | 26 | 100 | 99 | – | – | – | – | – | –
9 | Cc1nn(C)c(Nc2ccc(Br)cc2[N+](=O)[O-])c1-c1ccc(F)cc1Br [Compound 21] | 84 | 86 | 0 | 17 | 100 | 95 | – | – | – | – | – | –
10 | Cc1nn(C)c(Nc2ccc(Cl)cc2[N+](=O)[O-])c1-c1c(F)cccc1Cl [Compound 22] | 97 | 93 | 0 | 64 | 100 | 99 | – | – | – | – | – | –
11 | COc1cc(F)c(Nc2c(-c3c(F)cccc3Cl)c(C)nn2C)c([N+](=O)[O-])c1 [Compound 23, 4-(2-chloro-6-fluorophenyl)-N-(2-fluoro-4-methoxy-6-nitrophenyl)-1,3-dimethyl-1H-pyrazol-5-amine] | – | – | – | – | – | – | 100 | 100 | 99 | 99 | 100 | 97
12 | Cc1cc(Cl)c(Nc2c(-c3c(F)cccc3Cl)c(C)nn2C)c([N+](=O)[O-])c1 [Compound 24] | 0 | 89 | 0 | 0 | 100 | 97 | – | – | – | – | – | –
13 | Cc1nn(C)c(Nc2c(F)cccc2[N+](=O)[O-])c1-c1c(F)cccc1Cl [Compound 25] | 99 | 100 | 98 | 98 | 100 | 100 | – | – | – | – | – | –
14 | Cc1ccc(Nc2c(-c3ccc(F)cc3Cl)c(C)nn2C)c([N+](=O)[O-])c1 [Compound 26] | 94 | 99 | 77 | 68 | 100 | 100 | – | – | – | – | – | –
